Data reported in patent EP4700025A1, “AMIDE COMPOUND, PHARMACEUTICAL COMPOSITION COMPRISING SAME, AND USE THEREOF” (Suzhou Genhouse Bio Co., Ltd., priority 2023, dated 2024).

Key:
HCT-116 = experiment: CCK8 proliferation inhibition, HCT-116; type: cell-based; settings: Homo sapiens, 192 h, CCK8, 8 days after drug treatment
Protocol: (§1) The above normally growing cells were digested with a cell trypsinization solution, centrifuged, counted, and seeded into a 96-well plate at an appropriate cell density (2000 cells/well) at 100 µL/well. The next day after cell seeding, the compounds at different concentrations were added to the wells. Three replicate wells were set for each concentration point, and a corresponding DMSO negative control group was also set. CCK8 solution was added to each well 8 days after drug treatment. The plate was incubated at 37 °C for a period of time (OD450 of the vehicle group reached 1.0 or higher) before the absorbance at 450 nm was read using a microplate reader. The inhibition rates were calculated, and the EC50 values were determined by fitting using the GraphPad Prism 7.0 software. Table 2. EC50 values of compounds at cellular level

HCT-116-MTAP^-/- = experiment: CCK8 proliferation inhibition, HCT-116-MTAP^-/-; type: cell-based; settings: Homo sapiens, 192 h; HCT-116-MTAP^-/- (MTAP-deficient); CCK8, 8 days after drug treatment
Protocol: as §1

A549 = experiment: CCK8 proliferation inhibition, A549; type: cell-based; settings: Homo sapiens, 192 h, CCK8, 8 days after drug treatment
Protocol: as §1

SDMA [1] = experiment: SDMA Inhibition Assay in HCT-116 cells; type: cell-based; settings: Homo sapiens, HCT-116, 96 hours
Protocol: (§2) The next day, the cells were treated with the compounds at different concentrations (with an initial concentration of 10 µM, 5-fold dilution, 9 concentration gradients). After 96 hours, the culture medium was pipetted out and the cells were washed 2 times with 100 µL of PBS. The cells were then fixed with 4% paraformaldehyde and incubated at room temperature for 20 min. The fixative solution was discarded, and the cells were washed with PBS. 150 µL of specialized blocking solution (containing 1% Triton-100) was added to each well for blocking at room temperature for 2 hours, and the plate was washed with PBS to remove excess blocking solution. […] The cells were incubated at 4 °C overnight. The next day, the cells were separately washed 2 times with 1× PBST. […] The cells were incubated at room temperature for 2 hours. The cells were washed 2 times with 1× PBST and 1 time with PBS. Fluorescence signals at 700 nm and 800 nm were separately detected using a Li-COR Odyssey two-color near-infrared laser imager. The inhibition rates were calculated, and the EC50 values were determined by fitting using the GraphPad Prism 7.0 software. Table 3. Inhibition of SDMA by test compounds

SDMA [2] = experiment: SDMA Inhibition Assay in HCT-116-MTAP^-/- cells; type: cell-based; settings: Homo sapiens, 96 hours
Protocol: as §2

SDMA [3] = experiment: SDMA Inhibition Assay in A549 cells; type: cell-based; settings: Homo sapiens, A549, 96 hours
Protocol: as §2

[4] = Pharmacokinetic assay in mice; type: in vivo, Balb/c mice; settings: mouse; for MRT inf: read-out: MRT(0-∞)
Protocol: Eighteen male Balb/c mice aged 6 to 8 weeks were randomly divided into 2 groups (IV group and PO group). The corresponding compounds were administered to the animals in the IV group by tail intravenous injection at 2 mg/kg, and the corresponding compounds were administered to the animals in the PO group by oral gavage at 10 mg/kg or 100 mg/kg. The animals in the IV group were allowed free access to food and water, and the animals in the PO group were fasted overnight before administration and were fed 4 h after administration. Throughout the experiment, the animals were allowed free access to water. Plasma samples were separately collected at 0.083 h (only group IV), 0.25 h, 0.5 h, 1 h, 2 h, 4 h, 8 h, and 24 h after administration. About 100 µL of blood was collected from the orbit of the animal, placed into a 1.5 mL anticoagulation centrifuge tube, and centrifuged at 8000 rpm and 4 °C for 10 min. The upper plasma sample was transferred to an EP tube. The plasma samples were stored in a refrigerator at -80 °C until sample analysis. Pharmacokinetic parameters of the drug were calculated based on the drug concentration-time data, including the peak concentration Cmax, peak time Tmax, clearance rate CL, steady state apparent volume of distribution Vss, area under drug-time curve AUC, elimination half-life t1/2, bioavailability, and the like. Data below the 80% lower limit of quantification were excluded from the calculation of pharmacokinetic parameters.

[5] = Pharmacokinetic assay in rats; type: in vivo, SD rats; settings: rat; for MRT inf: read-out: MRT(0-∞)
Protocol: In this experimental example, the pharmacokinetic behavior of the test compounds after administration by intravenous injection (IV) and oral gavage (PO) in SD rats was tested.
On the day of administration, rats were weighed for actual body weight, and the administration volume was calculated. Each compound was tested in two groups with 3 rats in each group; one group was subjected to administration by single intravenous injection, and the other group was subjected to administration by single oral gavage. The whole blood samples were collected via the jugular vein at prescribed time points (0.25 h, 0.5 h, 1 h, 2 h, 4 h, 8 h, and 24 h after administration). After the blood sample collection, the samples were immediately transferred to labeled commercial sample tubes containing K2-EDTA (0.85-1.15 mg), followed by centrifugation (3200× g, 4 °C, 10 min) and plasma collection. The plasma was transferred to a pre-cooled centrifuge tube, frozen in dry ice, and then stored in an ultra-low temperature freezer at -60 °C or lower until the LC-MS/MS analysis was performed.
Plasma concentrations were determined by the LC-MS/MS method. Plasma drug concentration data for the compounds were processed using a non-compartmental model in the WinNonlin Version 6.3 (Pharsight, Mountain View, CA) pharmacokinetic software. The relevant pharmacokinetic parameters were calculated by a linear-log trapezoidal method.

[6] = male, Balb/c, plasma, 2 mg/kg, IV 2mpk
[7] = male, Balb/c, plasma, 10 mg/kg, PO 10mpk

CC1OCc2c1c(N)nc1cc(F)c(C(=O)N3CCOC[C@@H]3c3ccc4c(c3)OC(F)(F)O4)cc21 (single isomer, unassigned) [I-34 (PEAK2)]
EC50 (HCT-116): 980 nM
EC50 (HCT-116-MTAP^-/-): 8.3 nM
EC50 (A549): 43.5 nM
EC50 (SDMA [1]): 60.7 nM
EC50 (SDMA [2]): 1.1 nM
EC50 (SDMA [3]): 1.3 nM

CN(Cc1ccc2c(c1)OC(F)(F)O2)C(=O)c1ccc2nc(N)c3cnn(C)c3c2c1 [Example I-2]
EC50 (HCT-116): 6740 nM
EC50 (HCT-116-MTAP^-/-): 42.6 nM
EC50 (SDMA [1]): 1010 nM
EC50 (SDMA [2]): 8.3 nM
EC50 (SDMA [3]): 5.1 nM
AUC(0-inf) [4, 6]: 4.11 µM·h
AUC(0-t) [4, 6]: 3.53 µM·h
C0 [4, 6]: 1520 nM
MRT inf [4, 6]: 4 h
Vd ([4]; male, Balb/c, plasma, 2 mg/kg, IV 2mpk, read-out: Vz): 4.7 L/kg
AUC(0-inf) [4, 7]: 18.8 µM·h
AUC(0-t) [4, 7]: 18.1 µM·h
Cmax [4, 7]: 2190 nM
Tmax [4, 7]: 1 h
MRT inf [4, 7]: 7.1 h
CLz ([4]; IV 2mpk): 18.3 mL/min/kg
R_AUC(t/∞) ([4]; IV 2mpk): 85.8%
t1/2z ([4]; IV 2mpk): 2.8 h
R_AUC(t/∞) ([4]; PO 10mpk): 96.3%
t1/2z ([4]; PO 10mpk): 5.5 h
F ([4]; PO 10mpk vs IV 2mpk): 91.5%
AUC(0-inf) ([5]; SD, plasma, 2 mg/kg, IV 2mpk): 6.91 µM·h
AUC(0-t) ([5]; SD, plasma, 2 mg/kg, IV 2mpk): 6.42 µM·h
C0 ([5]; SD, plasma, 2 mg/kg, IV 2mpk): 2340 nM
MRT inf ([5]; SD, plasma, 2 mg/kg, IV 2mpk): 4.3 h
Vd ([5]; SD, plasma, 2 mg/kg, IV 2mpk, read-out: Vz): 3.4 L/kg
AUC(0-inf) ([5]; SD, plasma, 10 mg/kg, PO 10mpk): 17.2 µM·h
AUC(0-t) ([5]; SD, plasma, 10 mg/kg, PO 10mpk): 14.8 µM·h
Cmax ([5]; SD, plasma, 10 mg/kg, PO 10mpk): 1680 nM
Tmax ([5]; SD, plasma, 10 mg/kg, PO 10mpk): 2.3 h
MRT inf ([5]; SD, plasma, 10 mg/kg, PO 10mpk): 7.2 h
CLz ([5]; IV 2mpk): 13 mL/min/kg
R_AUC(t/∞) ([5]; IV 2mpk): 91.6%
t1/2z ([5]; IV 2mpk): 3.5 h
R_AUC(t/∞) ([5]; PO 10mpk): 86.6%
t1/2z ([5]; PO 10mpk): 4.7 h
F ([5]; PO 10mpk (IV reference 2mpk; 0.2mpk for I-7)): 49.9%

CCN(Cc1ccc2c(c1)OC(F)(F)O2)C(=O)c1cc2c(cc1F)nc(N)c1cnn(C)c12 [Example I-6]
EC50 (HCT-116): 389 nM
EC50 (HCT-116-MTAP^-/-): 2.4 nM
EC50 (A549): 27.4 nM
EC50 (SDMA [2]): 2 nM
EC50 (SDMA [3]): 1.9 nM

C[C@@H]1COCC(c2ccc3c(c2)OC(F)(F)O3)N1C(=O)c1cc2c(cc1F)nc(N)c1cnn(C)c12 (some centres unmarked) [Example I-11]
EC50 (HCT-116-MTAP^-/-): 0.9 nM
EC50 (A549): 2.5 nM
EC50 (SDMA [2]): 0.4 nM
EC50 (SDMA [3]): 0.3 nM

C[C@@H]1COCC(c2ccc3c(c2)OC(F)(F)O3)N1C(=O)c1ccc2nc(N)c3cnn(C)c3c2c1 (some centres unmarked) [Example I-12]
EC50 (HCT-116): 287 nM
EC50 (HCT-116-MTAP^-/-): 2.7 nM
EC50 (A549): 8.9 nM
EC50 (SDMA [2]): 0.5 nM
EC50 (SDMA [3]): 0.3 nM

CC(C)N(Cc1ccc2c(c1)OC(F)(F)O2)C(=O)c1cc2c(cc1F)nc(N)c1cnn(C)c12 [Example I-13]
EC50 (HCT-116-MTAP^-/-): 3.4 nM
EC50 (A549): 10.8 nM
EC50 (SDMA [2]): 3.5 nM
EC50 (SDMA [3]): 2.1 nM

CC(C)N(Cc1ccc2c(c1)OC(F)(F)O2)C(=O)c1ccc2nc(N)c3cnn(C)c3c2c1 [Example I-14]
EC50 (HCT-116): 1200 nM
EC50 (HCT-116-MTAP^-/-): 7.9 nM
EC50 (A549): 36.9 nM
EC50 (SDMA [1]): 374 nM
EC50 (SDMA [2]): 5.3 nM
EC50 (SDMA [3]): 2 nM

Cn1ncc2c(N)nc3cc(F)c(C(=O)N(Cc4ccc5c(c4)OC(F)(F)O5)[C@@H]4CCOC4)cc3c21 [Example I-22]
EC50 (HCT-116): 935 nM
EC50 (HCT-116-MTAP^-/-): 5.6 nM
EC50 (A549): 18.5 nM
EC50 (SDMA [2]): 1.1 nM
EC50 (SDMA [3]): 0.6 nM

COCCN(Cc1ccc2c(c1)OC(F)(F)O2)C(=O)c1cc2c(cc1F)nc(N)c1cnn(C)c12 [Example I-23]
EC50 (HCT-116-MTAP^-/-): 2.1 nM
EC50 (A549): 7.7 nM
EC50 (SDMA [2]): 1.3 nM
EC50 (SDMA [3]): 0.8 nM

COC[C@@H](C)N(Cc1ccc2c(c1)OC(F)(F)O2)C(=O)c1cc2c(cc1F)nc(N)c1cnn(C)c12 [Example I-24]
EC50 (HCT-116-MTAP^-/-): 3.2 nM
EC50 (A549): 8 nM
EC50 (SDMA [2]): 1.7 nM
EC50 (SDMA [3]): 1 nM

Cn1ncc2c(N)nc3cc(F)c(C(=O)N(Cc4ccc5c(c4)OC(F)(F)O5)[C@H]4CCOC4)cc3c21 [Example I-25]
EC50 (HCT-116): 1320 nM
EC50 (HCT-116-MTAP^-/-): 5.3 nM
EC50 (A549): 33 nM
EC50 (SDMA [1]): 123 nM
EC50 (SDMA [2]): 1.4 nM
EC50 (SDMA [3]): 0.8 nM

COC[C@H](C)N(Cc1ccc2c(c1)OC(F)(F)O2)C(=O)c1cc2c(cc1F)nc(N)c1cnn(C)c12 [Example I-26]
EC50 (HCT-116-MTAP^-/-): 3.5 nM
EC50 (A549): 10.1 nM
EC50 (SDMA [2]): 1.7 nM
EC50 (SDMA [3]): 0.6 nM

Cn1ncc2c(N)nc3cc(F)c(C(=O)N(Cc4ccc5c(c4)OC(F)(F)O5)C[C@@H]4COCCO4)cc3c21 [Example I-27]
EC50 (HCT-116): 510 nM
EC50 (HCT-116-MTAP^-/-): 4.2 nM
EC50 (A549): 24.4 nM
EC50 (SDMA [1]): 120 nM
EC50 (SDMA [2]): 1 nM
EC50 (SDMA [3]): 0.8 nM

CC1OCc2c1c(N)nc1cc(F)c(C(=O)N3C(c4ccc5c(c4)OC(F)(F)O5)COC[C@H]3C)cc21 (some centres unmarked) [Example I-39]
EC50 (HCT-116-MTAP^-/-): 2.5 nM
EC50 (A549): 18.5 nM
EC50 (SDMA [2]): 0.7 nM
EC50 (SDMA [3]): 0.9 nM

Cn1cnc(CN(Cc2ccc3c(c2)OC(F)(F)O3)C(=O)c2cc3c(cc2F)nc(N)c2cnn(C)c23)n1 [Example I-41]
EC50 (HCT-116-MTAP^-/-): 1.6 nM
EC50 (A549): 16.8 nM
EC50 (SDMA [2]): 0.7 nM
EC50 (SDMA [3]): 1.1 nM
